From US6255347A (priority 1997, dated 2001)
“Also recorded” adds a separate entry of the source.

Legend:
NIH 3T3 cells = experiment: Foci formation assay, inhibition of PMA induced neoplastic transformation of NIH 3T3 cells; assay type: cell-based; details: PMA 0.02 μg/ml, 2% FBS; for inhibition of PMA induced foci formation / neoplastic transformation: 6 weeks, ibuprofen 10 or 100 μg/ml
Experimental: (§1) NIH 3T3 cells (American Type Culture Collection, Rockville, Md.) were cultured in DMEM supplemented with 10% FBS inoculated at 10^4 cells/35 […] dish. […] PMA and ibuprofen were dissolved in DMSO and stored in 5% DMSO stock solutions that were diluted a 1000-fold with culture media prior to use. […] The media containing freshly added PMA and ibuprofen were changed every 60 hours for both the foci formation assay and PKCα analysis by Western blot.
Subsequent to washing with a tris/ saline buffer, the cells were stained with a solution of 4% aqueous Giemsa stain in phosphate buffer (pH 7.0). Foci of transformed cells were then visible by eye due to their high local density and verified by under light microscopy.

cyclooxygenase = details: cited from earlier work
PKCα = PKCα translocation in NIH 3T3 cells (subcellular fractionation, Western blot); assay type: cell-based; details: 10 μg/ml; for inhibition of PKCα translocation from cytosol to nuclear compartments: PMA 4 hours; for inhibition of PKCα translocation, racemate versus enantiomers: particularly 2 weeks of PMA
Experimental: as §1
The cells were washed twice with phosphate-buffered saline (PBS) at 37° C. and subsequently lysed and scraped in 1 ml ice-cold protein lysis buffer (20 mM Tris-HCl, pH7.4, 2 mM EGTA, 2 mM EDTA, […] leupeptin and […] aprotinin) at 4° C. […] Briefly, cells were homogenized 10× in 15 ml glass homogenizer with a tight-fitting pestle and centrifuged at 900×g for 10 min. The resulting supernatant was then centrifuged at 100,000×g for 60 min to produce a nucleus-free membrane fraction (pellet) and a cytosol fraction (supernatant) for Western blots. The 900×g nuclear pellet was suspended in the 2 ml lysis buffer containing 10% sucrose and 0.1% Triton X-100 and washed twice by centrifuging at 1000×g for 10 min, then resuspended in 1 ml of the same buffer without Triton X-100 for Western blots. The purity of the fractions was monitored by light microscopy. […] The samples were stored at -70° C. until analysis.
15 μl of human plasma, 15 μl of rat plasma, CSF or 50 μg of rat brain protein were denatured with 35 μl of sample buffer at 95° C. for 4 min. Denatured proteins were separated by 10% SDS-polyacrylamide gel electrophoresis with a 50 μg or 20 μg protein load for each sample for APPs or PKC, respectively, and electrophoretically transferred from gel to nitrocellulose membrane. […] The immunoreactive bands were developed using enhanced chemilumenescence (ECL. Amersham Life Sci., Little Chalfont, UK), following extensive washing with the blocking buffer. The PKC bands were verified in each case by competitively blocking the signal with the peptide corresponding to each of PKCs. The bands were quantitated by scanning densitometry. Quantitative comparisons were made between samples processed simultaneously on one blot.

PKC = target: T1, PKC (Rattus norvegicus, UniProt P05696); experiment: Protein kinase C activity assay (histone phosphorylation, partially purified rat brain PKC); assay type: biochemical; details: PMA stimulated; for concentration inhibiting PKC mediated histone phosphorylation: 2 min, 30° C.
T1 construct: Partially purified PKCα from rat brain; purchased Promega (Madison, Wis.); host or cells: rat brain (tissue enzyme, partially purified)
Experimental: The following were obtained from the Sigma Chemical Co. (St. […] Anti-PKCα antibody (affinity purified) and its C-terminal region peptide was obtained from Life Technologies (Gaithersburg, Md.). […] All other chemicals were of the highest available purity and were obtained from standard commercial sources. […] Following 2 min initial incubation at 30° C., kinase reactions were initiated by the addition of ^32 P-γ-ATP and enzyme and continued at 30° C. for 2 min. Control incubations contained all assay components except enzyme and ibuprofen. […] All samples were carried out in duplicate.

rat stomach and duodenum = experiment: Gastric ulcer index / gastroduodenal lesions in rat; assay type: in vivo
Experimental: Male Sprague-Dawley rats (12 month) were obtained from Harlan-Sprague-Dawley, Inc. (Indianapolis, Ind.) and housed under controlled conditions of temperature humidity and light/dark cycle. […] Rat blood, brain and 50 μl of cerebrospinal fluid were collected and stored at -70° C. for APPs and PKC analysis by Western blotting. Rat stomach and duodenum were collected for the quantitation of gastroduodenal lesions.
The rat stomach and first 12 cm of the duodenum were opened and carefully shed with saline to remove any residual debris and fixed in 10% buffered formaldehyde. Tissues were examined macroscopically (×10) for lesions and hemorrhages. The evaluation of lesions or hemorrhages was based on the ulcer index (UI) reported by Leyck et al. (1985) and expressed as the sum total of lesions per treatment. The scoring units used ranged from 0 to 5, where zero represents no macroscopically visible lesions; 1 represents one to three small ulcers less than 4 mm; 2 represents more than three small ulcers; 3 represents ulcer hemorrhages with several small ulcers; 4 represents large (>4 mm) ulcers; 5 indicates tissue perforation.

[1] = Chiral inversion of R- to S-ibuprofen in culture (HPLC); assay type: in vitro ADME; details: NIH 3T3 culture
Experimental: The concentration of the enantiomers of ibuprofen in cell culture media was determined by an HPLC procedure previously described for the enantiomers of ketoprofen (Grubb et al., 1996). The HPLC column consisted of a 5 μm (S,S)-Whelk-O1 stationary phase (250 mm×4.6 mm; Regis Technologies, Morton Grove, Ill.) eluted with a mobile phase of hexane/isopropyl alcohol/acetic acid (98/2/0.05) flowing at 0.8 ml/ min. […] Quantitation was achieved using peak area ratios with R-flurbiprofen as internal standard and ultraviolet absorbance at 254 nm. The limit of quantitation was set at 100 ng/ml.

animal tumors = details: in vivo; cited from earlier work
risk of AD = details: in vivo; cited from earlier work
[2] = test system: APPs secretion by NIH 3T3 cell lines; details: 50 μM; for Density of APPs band: 20 h culture, n = 2, mean ± S.D.
[3] = test system: APPs secretion by NIH 3T3 cell lines; experiment: cells; details: Mus musculus, NIH3T3, 20 h, read-out: fold increase of APPs secretion
[4] = cited from earlier work
APP = details: via activation of PKC; cited from earlier work
[5] = cited from earlier work; remark: listed apart in the source
[6] = test system: human neoplastic diseases; details: cited from earlier work

## CC(C)Cc1ccc([C@H](C)C(=O)O)cc1 [S-ibuprofen]
NIH 3T3 cells
  inhibition of foci formation, enantiomers compared to racemate: more pronounced than that of the racemate; also recorded: more effective than the racemic mixture
  inhibition of PMA induced foci formation / neoplastic transformation: dramatically decreased; also recorded: inhibit the neoplastic transformation; also recorded: substantially inhibited
cyclooxygenase
  capability to inhibit cyclooxygenase (in words): inhibition of cyclooxygenase activity by ibuprofen resides almost exclusively in the S-enantiomer
cyclooxygenase; from arachidonic acid
  potency in suppressing prostaglandin formation, S- versus R-ibuprofen: approximately 100 times
PKCα
  inhibition of PKCα translocation from cytosol to nuclear compartments: clearly modulated the time dependent intracellular redistribution of PKCα
  inhibition of PKCα translocation, racemate versus enantiomers: more effective than the racemic mixture
PKC
  concentration inhibiting PKC mediated histone phosphorylation: 1 µM
Rat stomach and duodenum; 10 mg/kg bid, 7 days, column 1
  Bleeding site (B), column 1: 4
Rat stomach and duodenum; rat, in vivo
  gastropathy (in words): induced serious gastric ulcers and hemorrhage

## CC(C)Cc1ccc([C@@H](C)C(=O)O)cc1 [R-ibuprofen]
NIH 3T3 cells
  inhibition of foci formation, enantiomers compared to racemate: more pronounced than that of the racemate; also recorded: more effective than the racemic mixture
  inhibition of PMA induced foci formation / neoplastic transformation: dramatically decreased; also recorded: inhibit the neoplastic transformation; also recorded: substantially inhibited
cyclooxygenase
  capability to inhibit cyclooxygenase (in words): very weak capability to inhibit cyclooxygenase
[1]
  inversion of R- to S-ibuprofen: No inversion of R- to S-ibuprofen was detectable; also recorded: did not occur
PKCα; 4 hours PMA
  inhibition of PKCα translocation compared to antipode: more effective than its antipode
PKCα
  inhibition of PKCα translocation from cytosol to nuclear compartments: clearly modulated the time dependent intracellular redistribution of PKCα
  inhibition of PKCα translocation, racemate versus enantiomers: more effective than the racemic mixture
PKC
  concentration inhibiting PKC mediated histone phosphorylation: 1 µM
PKC; read-out: maximal inhibition of PKC activity, at 20 μM
  inhibition at 20 µM: 53%
Rat stomach and duodenum; rat, in vivo
  gastric ulcers, incidence: one small gastric ulcer in 2 out of 4 rats
  ulcers larger than 4 mm: no ulcer larger than 4 mm

## N[C@H](Cc1ccc(N(CCCl)CCCl)cc1)C(=O)O [medphalan]
Animal tumors
  activity against certain animal tumors versus melphalan: less active

## CC(=O)Nc1ccc(O)cc1 [acetaminophen]
Risk of AD
  association with decreased risk of AD: not associated

## C[C@@H](C(=O)O)c1cccc(Oc2ccccc2)c1 [R-Fenoprofen]
[2]
  Density of APPs band: 5.32 ± 1.29
[3]
  fold induction at 50 µM: 1.3

## O=NN(CCCl)C(=O)NCCCl [Carmustine, 1,3-bis (2-chloroethyl)-1-nitrosourea]
[4]; solvent
  solubility (in words): highly soluble in alcohol and lipids, and poorly soluble in water

## CCCCCCCCCCCCCC(=O)O[C@@H]1[C@@H](C)[C@@]2(O)[C@@H](C=C(CO)C[C@]3(O)C(=O)C(C)=C[C@@H]23)[C@@H]2C(C)(C)[C@]12OC(C)=O [phorbol ester]
APP
  formation of APPs: increase the formation of APPs
  production of amyloidogenic fragments containing Aβ and Aβ: reduce the production

## O=NN(CCCl)C(=O)NC1CCCCC1 [Lomustine, 1-(2-chloro-ethyl)-3-cyclohexyl-1 nitrosourea]
[4]; physiological pH
  ionization: relatively unionized at a physiological pH
[5]; 15 minutes after intravenous administration
  tissue levels compared to plasma levels: comparable to plasma levels
[5]; oral 30 mg/m^2 to 100 mg/m^2, within 24 hours
  radioactivity excreted as degradation products: about half

## CC(C(=O)O)c1cccc(Oc2ccccc2)c1 (racemic) [RS-Fenoprofen]
[2]
  Density of APPs band: 6.36 ± 0.77
[3]
  fold induction at 50 µM: 1.6

## CC[C@]1(O)C[C@@H]2CN(CCc3c([nH]c4ccccc34)[C@@](C(=O)OC)(c3cc4c(cc3OC)N(C)[C@H]3[C@@](O)(C(=O)OC)[C@H](OC(C)=O)[C@]5(CC)C=CCN6CC[C@]43[C@@H]65)C2)C1 [Vinblastine]
[6]; lymphomas, particularly Hodgkin's disease
  cases with significant improvement: 50 to 90%
[5]; in vivo
  excreted in urine: Approximately 15%
  recovered in the feces: about 10%

## C[C@H](C(=O)O)c1cccc(Oc2ccccc2)c1 [S-Fenoprofen]
[2]
  Density of APPs band: 5.32 ± 1.53
[3]
  fold induction at 50 µM: 1.3

## CC(=O)Oc1ccccc1C(=O)O [Aspirin]
[2]; 20 h
  APPs secretion (in words): failed to show an increased secretion of APPs
[2]
  Density of APPs band: 2.92 ± 0.43
Risk of AD
  association with decreased risk of AD: not associated

## CS(=O)(=O)OCCCCOS(C)(=O)=O [busulfan, 1,4-butanediol dimethanesulfonate]
[6]; previously untreated chronic myelogenous leukemia, adults
  patients obtaining hematologic remission: Approximately 90%
